≈ marks a conversion by molar mass, not a printed value. Where two headings read alike, the source gives them in different places.
Columns and labels:
[1] = molecular target: T1, CYP3A4 (Homo sapiens, UniProt P08684); assay: CYP inhibition test (CYP3A4); type: in vitro ADME; details: pooled human liver microsomes; terfenadine hydroxylation
T1 construct: The commercially available pooled human liver microsomes are used as an enzyme resource; from tissue; host or cells: pooled human liver microsomes
Text: (§1) The CYP inhibition test is a test to assess the inhibitory effect of a compound of the present invention towards typical substrate metabolism reactions on CYP enzymes in human liver microsomes. The marker reactions on human main five CYP enzymes (CYP1A2, 2C9, 2C19, 2D6, and 3A4) are used as follows: 7-ethoxyresorufin O-deethylation (CYP1A2), tolbutamide methyl-hydroxylation (CYP2C9), mephenytoin 4′-hydroxylation (CYP2C19), dextromethorphan O-demethylation (CYP2D6), and terfenadine hydroxylation (CYP3A4). The commercially available pooled human liver microsomes are used as an enzyme resource.
(§2) The reaction conditions were as follows: substrate, 0.5 μmol/L ethoxyresorufin (CYP1A2), 100 μmol/L tolbutamide (CYP2C9), 50 μmol/L, S-mephenytoin (CYP2C19), 5 μmol/L dextromethorphan (CYP2D6), 1 μmol/L terfenadine (CYP3A4): reaction time, 15 minutes: reaction temperature, 37° C.; enzyme, pooled human liver microsomes 0.2 mg protein/mL; concentrations of the compound of the present invention, 1, 5, 10, 20 μmol/L (four points).
(§3) Five kinds of substrates, human liver microsomes, and a compound solution of the present invention in […] Hepes buffer were added to a 96-well plate at the composition as described above as a reaction solution. NADPH as a cofactor was added to this 96-well plate in order to initiate metabolism reactions. After the incubation at 37° C.for […], a methanol/acetonitrile=1/1 (v/v) solution was added to stop the reaction. After the centrifugation at 3000 rpm for 15 minutes, resorufin (CYP1A2 metabolite) in the supernatant was quantified by a fluorescent plate reader, and hydroxytolbutamide (CYP2C9 metabolite), 4′-hydroxymephenytoin (CYP2C19 metabolite), dextrorphan (CYP2D6 metabolite), and terfenadine alcohol metabolite (CYP3A4 metabolite) in the supernatant were quantified by LC/MS/MS.
(§4) The sample adding DMSO to a reaction system instead of compound of the present invention solution was adopted as a control (100%) because DMSO was used as a solvent to dissolve a compound of the present invention. Remaining activity (%) was calculated at each concentration of a compound of the present invention, and IC50 value was calculated by reverse presumption by a logistic model using a concentration and an inhibition rate.

[2] = system: Aβ production in neuroblastoma SH-SY5Y cells (SH/APPwt); assay: β-amyloid (Aβ) production inhibitory effect in cell: 384-well; type: cell-based; details: Homo sapiens, Assay format 384-well
Description: Neuroblastoma SH-SY5Y cells (SH/APPwt) with human wild-type β-APT excessively expressed therein were prepared at 4×10^5 cells/mL, and 50 μl portions thereof were inoculated into each well of a 384-well culture plate (Corning) added 0.5 μl of the test compound of the present invention (DMSO solution). The final DMSO concentration was 1%, and the amount of the cell culture was 50 μl. After the incubation was performed for 21 hours from the cell seeding, 5 μl of the culture supernatant was collected from each fraction. The amount of the Aβ in each fraction was measured.
The Aβ amount was measured as follows. 5 μl of a homogeneous time resolved fluoresrenee (HTRF) measurement reagent (Amyloid β1-40 peptide; CIS bio international) and 5 μl of the culture supernatant were put into a 384′well plate (a black plate: Corning) and mixed with each other, and then left standing overnight at 4° C. while the light was shielded. Then, the fluorescence intensity (620 nm and 665 nm) was measured with EnViston (Perkin Elmer life sciences).

[3] = Metabolic stability test; type: in vitro ADME; details: human liver microsomes, 37° C., 30 minutes, NADPH
Description: Using a commercially available pooled human liver microsomes, a compound of the present invention was reacted for a constant time, a remaining rate was calculated by comparing a reacted sample and an unreacted sample, thereby, a degree of metabolism in liver was assessed.
A reaction was performed (oxidative reaction) at 37° C. for 0 minute or 30 minutes in the presence of 1 mmol/L NADPH in 0.2 mL of a buffer (60 mmol/L Tris-HCl pH 7.4, 150 mmol/L potassium chloride, 10 mmol/L magnesium chloride) containing 0.5 mg protein/mL of human liver microsomes. After the reaction, 50 μL of the reaction solution was added to 100 μL of a methanol/acetonltrile=1/1 (v/v), mixed and centrifuged at 3000 rpm for 15 minutes. The compound of the present invention in the supernatant was quantified by LC/MS/MS or solid phase extraction (SPE)/MS, and a remaining amount of the compound of the present invention after the reaction area calculated, letting a compound amount at 0 minute reaction time to be 100%.

[4] = Solubility test; type: physicochemical; details: for solubility kinetic at 1 h: kinetic from dmso stock; for solubility kinetic at 16 h: solubility in JP 2nd fluid B, 1% DMSO, *2: shaken for 1 hour at room temperature
Description: A 10 mmol/L solution of the compound was prepared with DMSO, and 2 μL of the compound of the present invention solution was added, respectively, to 198 μL of JP 1st fluid (water was added to 2.0 g of sodium chloride and 7.0 ml, of hydrochloric acid to reach 1000 mL) and JP 2nd fluid (See Table 4). The mixture was left standing for 16 hours at 25° C. or shaken for 1 hour at ruom temperature, and the mixture was vacuum-filtered. The […] was ten or one hundred-fold diluted with metbanol/water=1/1 (v/v) or MeCN/MeOH/H2O(=1/1/2), and the compound concent ration in the filtrate was measured with LC/MS or solid phase extraction (SPE)/MS by the absolute calibration method.

[5] = molecular target: T2, CYP1A2 (Homo sapiens, UniProt P05177); assay: CYP inhibition test (CYP1A2); type: in vitro ADME; details: pooled human liver microsomes; 7-ethoxyresorufin O-deethylation
T2 construct: The commercially available pooled human liver microsomes are used as an enzyme resource; from tissue; host or cells: pooled human liver microsomes
T2 sequence (P05177 1-516): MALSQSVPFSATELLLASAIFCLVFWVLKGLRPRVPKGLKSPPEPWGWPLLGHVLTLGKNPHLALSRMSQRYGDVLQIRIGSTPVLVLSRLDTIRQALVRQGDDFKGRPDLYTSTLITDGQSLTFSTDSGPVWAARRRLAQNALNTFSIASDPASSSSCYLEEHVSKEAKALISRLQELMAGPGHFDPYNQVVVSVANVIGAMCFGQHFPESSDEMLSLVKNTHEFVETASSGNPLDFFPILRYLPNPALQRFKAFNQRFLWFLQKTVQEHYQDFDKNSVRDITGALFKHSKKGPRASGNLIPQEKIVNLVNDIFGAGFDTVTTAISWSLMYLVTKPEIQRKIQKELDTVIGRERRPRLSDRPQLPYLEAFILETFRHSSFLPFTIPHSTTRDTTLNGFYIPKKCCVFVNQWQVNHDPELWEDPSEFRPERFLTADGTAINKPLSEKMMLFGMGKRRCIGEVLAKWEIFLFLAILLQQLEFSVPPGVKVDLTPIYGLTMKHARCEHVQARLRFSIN
Text: as §1, §2, §3, §4

[6] = molecular target: T3, Recombinant human BACE1 (Homo sapiens, UniProt P56817); assay: Assay of BACE1 inhibitory activity: 384-well; type: biochemical; details: Assay format 384-well
T3 construct: purchased R&D Systems
Description: 5 μL of substrate peptide solution (Biotin-XSEVNLDAEFRHDSGC-Eu: X=ε-amino-n-capronic acid, Eu=Europium eryplate) was added to each well of 384-well plate (a black plate: Corning), and after addition of 0.1 μl of the compound of the present invention (DMSO solution) and 5 μl of Recombinant human BACE1 (R&D Systems), the reaction mixture was incubated at 25° C. for 2 hours. The substrate peptide was synthesized by reacting Cryptate TBPCOOH mono SMP (CIS bio international) with Biotin-XSEVNLDAEFRHDSGC (Peptide Institute, Inc.).
After the incubation for reaction, 10 μl of 8.0 μg/ml Streptavidin-XL665 (CIS bio International) dissolved in phosphate buffer (150 mmol/L K2HPO4-KH2PO4, pH 7.0, 0.008% Triton X-100, 0.8 mol/L KF) was added to each well and left stand at 25° C. for 30 minutes.

[7] = molecular target: T4, CYP2C19 (Homo sapiens, UniProt P33261); assay: CYP inhibition test (CYP2C19); type: in vitro ADME; details: pooled human liver microsomes; mephenytoin 4′-hydroxylation
T4 construct: The commercially available pooled human liver microsomes are used as an enzyme resource; from tissue; host or cells: pooled human liver microsomes
Text: as §1, §2, §3, §4

[8] = JP 1st fluid, pH 1.2, simulated gastric fluid, read-out: JP1
[9] = JP 2nd fluid B, pH 6.8, aqueous buffer, read-out: JP2_μM

T3 sequence (P56817 46-501): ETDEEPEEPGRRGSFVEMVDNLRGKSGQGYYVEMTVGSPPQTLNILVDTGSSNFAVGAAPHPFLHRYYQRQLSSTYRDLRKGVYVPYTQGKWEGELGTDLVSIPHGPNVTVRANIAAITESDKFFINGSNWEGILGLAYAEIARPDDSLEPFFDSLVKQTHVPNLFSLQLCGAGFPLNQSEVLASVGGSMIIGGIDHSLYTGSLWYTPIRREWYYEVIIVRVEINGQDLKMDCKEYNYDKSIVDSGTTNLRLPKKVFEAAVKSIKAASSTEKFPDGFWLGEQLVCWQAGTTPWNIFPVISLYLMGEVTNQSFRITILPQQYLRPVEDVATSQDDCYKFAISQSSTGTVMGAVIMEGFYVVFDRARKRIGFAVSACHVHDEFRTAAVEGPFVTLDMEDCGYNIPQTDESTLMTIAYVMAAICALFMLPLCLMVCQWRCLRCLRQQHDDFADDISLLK
T1 sequence (P08684 whole entry): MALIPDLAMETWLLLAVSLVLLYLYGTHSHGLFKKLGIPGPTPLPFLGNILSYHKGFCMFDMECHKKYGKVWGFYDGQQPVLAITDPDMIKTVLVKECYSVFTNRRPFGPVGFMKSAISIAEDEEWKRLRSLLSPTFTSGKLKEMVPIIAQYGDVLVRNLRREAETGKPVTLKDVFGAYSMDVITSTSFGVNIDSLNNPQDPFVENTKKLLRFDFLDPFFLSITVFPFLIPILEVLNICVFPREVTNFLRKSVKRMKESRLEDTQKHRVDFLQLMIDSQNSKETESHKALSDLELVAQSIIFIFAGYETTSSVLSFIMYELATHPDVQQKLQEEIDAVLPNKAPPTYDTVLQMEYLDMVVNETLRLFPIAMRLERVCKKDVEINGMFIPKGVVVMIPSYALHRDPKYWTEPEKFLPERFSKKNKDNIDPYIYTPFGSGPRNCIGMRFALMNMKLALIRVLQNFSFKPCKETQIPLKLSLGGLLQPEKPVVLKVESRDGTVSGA
T4 sequence (P33261 whole entry): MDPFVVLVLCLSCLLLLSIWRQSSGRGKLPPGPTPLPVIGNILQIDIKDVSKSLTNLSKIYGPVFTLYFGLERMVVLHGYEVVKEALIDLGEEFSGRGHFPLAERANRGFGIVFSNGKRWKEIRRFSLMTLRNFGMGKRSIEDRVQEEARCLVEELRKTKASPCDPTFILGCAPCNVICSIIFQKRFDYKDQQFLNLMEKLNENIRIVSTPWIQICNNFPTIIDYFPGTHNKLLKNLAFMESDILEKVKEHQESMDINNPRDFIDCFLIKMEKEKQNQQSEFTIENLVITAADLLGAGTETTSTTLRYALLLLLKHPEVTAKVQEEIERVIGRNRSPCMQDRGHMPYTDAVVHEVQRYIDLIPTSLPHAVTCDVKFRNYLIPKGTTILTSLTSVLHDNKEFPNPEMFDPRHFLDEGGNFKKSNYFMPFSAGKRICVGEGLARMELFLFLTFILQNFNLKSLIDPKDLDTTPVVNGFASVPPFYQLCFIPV

SMILES	IC50 [1]	IC50 [2]	remaining % [3]	solubility kinetic at 1 h [4, 8]	solubility kinetic at 16 h ([4]; read-out: JP2_μM)	IC50 [5]	IC50 [6]	IC50 [7]	solubility kinetic at 1 h [4, 9]
COC[C@H]1SC(N)=N[C@](C)(c2cc(NC(=O)c3ccc(C#N)cn3)ccc2F)[C@H]1F [Compound I-92]	≥ 20000 nM	1 nM	81%	> 50 µM	>50 µM	≥ 20000 nM	8.27 nM	≥ 20000 nM	
COc1ccc(C(=O)Nc2ccc(F)c([C@@]3(C)N=C(N)O[C@H](C(F)(F)C4CC4)[C@@H]3F)c2)nc1 [Compound I-93]		28 nM	82.2%	> 50 µM		≥ 20000 nM	44.5 nM	≥ 20000 nM	6.1 µM (≈ 2.85 µg/mL)
C[C@]1(c2cc(NC(=O)c3cnc(OCF)cn3)ccc2F)N=C(N)O[C@H](C2(F)CC2)[C@@H]1F [Compound I-94]		3.5 nM							
COc1cnc(C(=O)Nc2ccc(F)c([C@@]3(C)N=C(N)O[C@H](C4(F)CC4)[C@@H]3F)c2)cn1 [Compound I-97]	≥ 20000 nM	2.5 nM		> 50 µM	>50.0 µM	≥ 20000 nM	10.5 nM	≥ 20000 nM	
COc1ccc(C(=O)Nc2ccc(F)c([C@@]3(C)N=C(N)O[C@H](C4(F)CC4)[C@@H]3F)c2)nc1 [Compound I-100]	≥ 20000 nM	13 nM	60.2%	> 50 µM	>50.0 µM	≥ 20000 nM	26 nM	≥ 20000 nM	
[2H]C([2H])([2H])Oc1cnc(C(=O)Nc2ccc(F)c([C@@]3(C)N=C(N)S[C@H](C)[C@@H]3F)c2)cn1 [Compound I-111]	≥ 20000 nM	0.97 nM	64.9%	48.4 µM (≈ 19.9 µg/mL)		≥ 20000 nM	10.3 nM	≥ 20000 nM	> 50 µM

Source: patent US20170073337A1, “DIHYDROTHIAZINE AND DIHYDROOXAZINE DERIVATIVES HAVING BACE1 INHIBITORY ACTIVITY” (Shionogi & Co., Ltd., priority 2014, published 2017)
